Experiments:
[1] = molecular target: T1, serotonin 5-HT1A receptor (Rattus norvegicus, UniProt P19327); assay: 5-HT1A binding assay ([3H]8-OH-DPAT, rat brain cortex); conditions: [3H]8-OH-DPAT, rat brain cortex; mean of three experiments; >10000 marked b: Ki not calculated, inhibition at 10 µM too low; read-out: Ki±SEM, 5HT1A
T1 construct: Rat cerebral cortex was homogenized in 20 volumes of ice-cold Tris-HCl buffer; from tissue; host or cells: rat brain (cerebral) cortex
T1 sequence (P19327 1-422): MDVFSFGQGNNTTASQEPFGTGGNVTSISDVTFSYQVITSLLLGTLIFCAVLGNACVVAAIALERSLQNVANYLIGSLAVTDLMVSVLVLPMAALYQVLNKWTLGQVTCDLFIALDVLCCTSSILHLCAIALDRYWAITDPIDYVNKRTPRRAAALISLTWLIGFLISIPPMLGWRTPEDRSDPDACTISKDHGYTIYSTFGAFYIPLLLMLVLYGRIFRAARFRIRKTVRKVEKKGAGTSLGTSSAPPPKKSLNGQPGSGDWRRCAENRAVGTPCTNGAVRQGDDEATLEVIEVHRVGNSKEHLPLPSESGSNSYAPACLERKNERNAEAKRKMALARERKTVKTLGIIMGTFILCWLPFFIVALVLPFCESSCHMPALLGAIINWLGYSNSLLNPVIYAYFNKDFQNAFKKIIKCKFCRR
Method: (§1) All the new compounds were dissolved in 5% DMSO. The following specific radioligands and tissue sources were used: (a) serotonin 5-HT1A receptor, [^3H]8-OH-DPAT, rat brain cortex; (b) serotonin 5-HT2A receptor, [^3H]ketanserin, rat brain cortex; (c) serotonin 5-HT2C receptor, [^3H]mesulergine, rat brain cortex; (d) dopamine D2 receptor, [^3H]spiperone, rat striatum; (e) dopamine D3 receptor, [^3H]spiperone, rat olfactory tubercle (f) histamine H1 receptor, [^3H] pyrilamine, guinea pig cerebellum.
(§2) Total binding was determined in the absence of no-specific binding and compounds. Specific binding was determined in the presence of compounds. Non-specific binding was determined as the difference between total and specific binding.
(§3) Percentage of inhibition (%) = (total binding − specific binding)×100%/(total binding − nonspecific binding).
(§4) Ki values were calculated based on the Cheng and Prussoff equation: Ki = IC50/(1+C/Kd) where C represents the concentration of the hot ligand used and Kd its receptor dissociation constant were calculated for each labeled ligand. Mean Ki values and SEM were reported for at least three independent experiments.
Rat cerebral cortex was homogenized in 20 volumes of ice-cold Tris-HCl buffer (50 mM, pH 7.7) using an ULTRA TURAX homogeniser, and was then centrifuged at 32000 g for 10 min. […] The final pellet was resuspended in Tris-HCl buffer containing 10 µM Pargyline, 4 mM CaCl2 and 0.1% ascorbic acid.
Total binding each assay tube was added 900 µL of the tissue suspension, 50 µL of 0.5 nM [^3H]8-OH-DPAT (187.4 Ci/mmol, Perkin Elmer Life Sciences, Boston, MA, USA), 50 µL Tris-HCl buffer containing 10 µM Pargyline, 4 mM CaCl2 and 0.1% ascorbic acid.
Non-specific binding each assay tube was added 900 µL of the tissue suspension, 50 µL of 0.5 nM [^3H]8-OH-DPAT, 50 µL of 10 µM serotonin.
Specific binding each assay tube was added 900 µL of the tissue suspension, 50 µL of 0.5 nM [^3H]8-OH-DPAT, 50 µL of new compounds or reference drug.
(§5) The incubation was followed by a rapid vacuum filtration through Whatman GF/B glass filters, and the filtrates were washed twice with 5mL cold buffer and transferred to scintillation vials. Scintillation fluid (3.0 mL) was added and the radioactivity bound was measured using a Beckman LS 6500 liquid scintillation counter.

[2] = molecular target: T2, dopamine D3 receptor (Rattus norvegicus, UniProt P19020); assay: D3 dopaminergic binding assay ([3H]spiperone, rat olfactory tubercle); conditions: mean of three experiments, read-out: Ki±SEM, D3
T2 construct: Rat olfactory tubercle was homogenized in 20 volumes of ice-cold 50 mM Hepes Na; from tissue; host or cells: rat olfactory tubercle
Method: as §1, §2, §3, §4
as §5, with “5 mL” for “5mL”

[3] = molecular target: T3, histamine H1 receptor (Cavia porcellus, UniProt P31389); assay: Histamine H1 binding assay ([3H]pyrilamine, guinea pig cerebellum); conditions: [3H]pyrilamine, guinea pig cerebellum; mean of three experiments; >10000 marked b: Ki not calculated, inhibition at 10 µM too low; read-out: Ki±SEM, H1
T3 construct: Guinea pig cerebellum was homogenized in 20 volumes of ice-cold 50 mM phosphate buffer; from tissue; host or cells: guinea pig cerebellum
Method: as §1, §2, §3, §4
as §5, with “5 mL” for “5mL”

[4] = tested on: mice; assay: Acute toxicity study; format: in vivo; conditions: oral, survival after 24 h, highest dose 2000 mg/kg
Method: The number of surviving animals was recorded after 24 h of drug administration, and the percent mortality in each group was calculated.

[5] = Pharmacokinetics study in rat; format: in vivo; conditions: rats
Method: The HPLC conditions were as follows: column, Shim-pack ODS 5.0 µm×150 mm×2.0 mm I.D (SHIMADZU, Japanese); mobile phase, 0.0167% HCOOH (TEDIA Company, USA)/acetonitrile (Merck Company, Germany)50/50; flow rate, 0.2 mL/min; column temperature, 40°C.
For routine compound 22 screening rats (n = 6/group) were dosed via the lateral tail vein at the indicated dose for intravenous administration (5 mg/kg, 100% saline) or via oral gavage (20 mg/kg, suspension in 0.5% methylcellulose). At 30 min, 1 h, 2 h, 3 h, 4 h, 5 h, 6 h, 7 h and 24 h after administration, serial blood samples were collected from the lateral tail vein into heparinized collection tubes (approximately 0.25 mL). The plasma was separated by centrifugation, and the sample was prepared for analysis HPLC/MS by protein precipitation with acetonitrile. The plasma samples were analyzed for drug and internal standard via HPLC-MS/MS protocol.

[6] = tested on: catalepsy in mice; assay: Catalepsy test (horizontal bar); conditions: po

T3 sequence (P31389 whole entry): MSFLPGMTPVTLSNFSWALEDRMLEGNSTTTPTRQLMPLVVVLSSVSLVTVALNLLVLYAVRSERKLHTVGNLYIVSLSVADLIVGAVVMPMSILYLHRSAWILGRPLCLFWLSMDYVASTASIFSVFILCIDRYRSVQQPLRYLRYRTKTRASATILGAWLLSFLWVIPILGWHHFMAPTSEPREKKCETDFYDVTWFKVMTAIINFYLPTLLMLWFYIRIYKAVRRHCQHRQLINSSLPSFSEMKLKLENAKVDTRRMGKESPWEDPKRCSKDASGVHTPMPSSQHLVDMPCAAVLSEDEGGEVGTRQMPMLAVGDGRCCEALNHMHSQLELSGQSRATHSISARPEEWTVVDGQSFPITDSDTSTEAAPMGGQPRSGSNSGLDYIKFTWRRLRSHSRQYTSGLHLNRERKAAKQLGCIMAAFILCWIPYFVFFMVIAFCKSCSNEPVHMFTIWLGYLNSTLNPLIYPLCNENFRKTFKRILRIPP
T2 sequence (P19020 whole entry): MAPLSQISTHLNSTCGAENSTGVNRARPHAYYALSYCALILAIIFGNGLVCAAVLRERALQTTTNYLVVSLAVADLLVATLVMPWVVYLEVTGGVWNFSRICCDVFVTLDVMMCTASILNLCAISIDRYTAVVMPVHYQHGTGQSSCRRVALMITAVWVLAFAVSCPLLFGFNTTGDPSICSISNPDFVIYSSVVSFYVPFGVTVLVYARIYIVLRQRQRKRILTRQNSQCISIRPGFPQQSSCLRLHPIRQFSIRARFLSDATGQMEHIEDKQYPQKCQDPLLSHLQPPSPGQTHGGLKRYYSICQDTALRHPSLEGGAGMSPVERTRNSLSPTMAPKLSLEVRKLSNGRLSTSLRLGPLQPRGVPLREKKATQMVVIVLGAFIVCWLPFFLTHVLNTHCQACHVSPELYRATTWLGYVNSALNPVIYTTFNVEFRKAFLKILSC

Work on `Fc1ccc2c(C3CCN(CCCSc4nnc(-c5cccc6ccccc56)o4)CC3)noc2c1` [Compound 22, 2-(3-(4-(6-fluorobenzo[d]isoxazol-3-yl)piperidin-1-yl)propylthio)-5-(naphthalen-1-yl)-1,3,4-oxadiazole] yielded a Ki [1] of 4.6 ± 0.8 nM, a Ki [2] of 7.7 ± 0.6 nM and a Ki [3] of over 10000 nM. The LD50 [4] was over 2000 mg/kg, the AUC0-inf ([5]; i.v. 5 mg/kg, plasma, n = 6) was 6239.0 ng·h/mL and the t1/2 ([5]; i.v. 5 mg/kg, plasma, n = 6) was 9.3 h. The “F (bioavailability)” value ([5]; oral 20 mg/kg vs i.v. 5 mg/kg) was 54.5%, the AUC0-inf ([5]; oral 20 mg/kg, plasma, n = 6) was 13602.7 ng·h/mL and the Cmax ([5]; oral 20 mg/kg, plasma, n = 6) was 723.6 ng/mL. The Tmax ([5]; oral 20 mg/kg, plasma, n = 6) was 5 h, the t1/2 ([5]; oral 20 mg/kg, plasma, n = 6) was 8.6 h and the “CAT (catalepsy) ED50 (C)” value [6] was over 300 mg/kg.
